Assay [1] has as its system endothelin constriction. Put plainly: Inhibitory effects on endothelin induced contraction in porcine coronary arteries (LAD rings). In kind it is cell-based. Particulars: Sus scrofa, endothelin 3×10^-9 M, read-out: Inhibition (%) of maximum contraction by endothelin; for inhibition at 10 µM: 10^-5 M; for inhibition at 1 µM: 10^-6 M. On the procedure:
Inhibitory Effects of the Compounds on […] Induced Contraction in Porcine Coronary Arteries
Ring preparation of porcine left arterior descending coronary arteries (LAD) were suspended in 20 ml baths containing Krebs-Henseleit solutions at 37° C. gassed with 97% O2 -3% CO2. Endothelin (3×10^-9 M) was added to the baths, and after the constriction reached the steady state, the compounds at concentrations of […] and 10^-5 M (Examples 45, 48 and 127) were added to the bath. Then, the relaxation activity was examined. The relaxation activity of the compounds was expressed as % inhibition from the maximum contraction by endothelin.

Assay [2] relates to NGF. In words: Promoting effects on synthesis and secretion of NGF in glia cells (C6 glioma), enzyme immuno assay. In kind it is cell-based. Particulars: 24 hours, read-out: Promoting Activity (%) of NGF synthesis and secretion (relative to control = 100); for activity at 30 µM: 3 × 10^-5 M; for activity at 3 µM: 3 × 10^-6 M. On the procedure:
Promoting Effects of the Compounds on Synthesis and Secretion of NGF in Glia Cells
A 48 well-plate was seeded with glia strains cells (C6 glioma) at a rate of 2.5×10^4 cells/well, which was cultivated in Dulbecco's modified eagle's medium (DMEM) containing 10% fetal calf serum. When the cells became confluent (2 to 3 days), each of the following compounds of the present invention was added thereto, and it was cultivated in serum free-DMEM for 24 hours. NGF secreted in the culture supernatant was assayed by enzyme immuno assay. An amount of NGF is shown in a relative value to 100, the value of control (without addition of the compound). The compounds were added in a solution of DMSO, at an amount of 1/100 (V/V) of a medium (V/V). In a control, DMSO alone was added.

The subject of assay [3] is Interleukin 1 Production. Put plainly: Inhibitory effects on interleukin 1 production stimulated by lipopolysaccharide in rat intraperitoneal macrophage (LAF assay). In kind it is cell-based, Male Sprague-Dawley rats. As to conditions: LPS 50 ug/ml; for inhibition at 10 µM: 10^-5 Molar; for inhibition at 1 µM: 10^-6 Molar. On the procedure:
Inhibitory Effects on Interleukin 1 Production Simulated by Lipopolysaccharide in the Rat Intraperitoneal Macrophage
Male Sprague-Dawley rats (8 weeks old, body weight: 300 g, Clea Japan) were killed by exsanguination under etherization. 20 ml of a culture solution (RPMI-1640) was intraperitoneally administered to each rat, and the abdominal part thereof was massaged, followed by abdominal section to recover the culture solution. After centrifugation of the solution, the cell pellet obtained was resuspended in 4 ml of the culture solution, superposed on 5 ml of Ficoll-Paque solution (lymphocyte separation medium, Wako Junyaku, Japan), and centrifuged at 450 g at room temperature for 15 minutes. The cells located in the boundary between the Ficoll-Paque solution and the culture solution were collected and washed 3 times with the culture solution. The resulting cells were suspended in the culture solution again, which was used as a macrophage-suspended solution (3×10^5 cells/ml).
Interleukin 1 was produced in the following manner. Macrophage (3×10^5 cells) in a 96-well microtiter plate was preincubated in a CO 2 incubator for 1 hour with each of the compounds shown in Table 5. Then, 50 ug/ml of lipopolysaccharide (Escherichia coli 0111 B4, Difco) was added thereto. After cultivation was further continued for 20 hours, the activity of interleukin 1 in the culture supernatant was measured by an LAF (lymphocyte activating factor) assay. Experiments were carried out in a triplicate manner.
The LAF assay was conducted as the following. Thymocytes (1-1.5×10^6 cells) of C3H/HeJ mice were added to phytohemagglutinin (PHA) P (diluted 1/2000; Difico) and the macrophage culture solution diluted 1/10 or 1/30, and cultivated in a CO2 incubator. After 48 hours, ^3 H-thymidine of 0.5 uCi was added thereto and cultivation was further continued for 24 hours. Then, the amount of ^3 H-thymidine entrapped in the thymocytes was measured. The radioactivity entrapped in the thymocytes was taken as the amount of interleukin-1.
We conducted this process partly modifying the method of R. C. Newton et al. [J. Leukocyte, Biology 39, 299-3111 (1986)].

Assay [4] has as its system Feverescence of Rat Due to Lipopolvsaccharide (LPS). In words: Antipyretic activity in LPS-induced febrile rats. In kind it is in vivo, Male JcL;SD rats. As to conditions: p.o. How it is done:
Activity of Depressing Feverescence of Rat Due to Lipopolvsaccharide (LPS)
Male JcL;SD rats 7 weeks old (body weight: about 250 g, Clea Japan) were used. Each group had 6 rats. The rats were reared in individual cages from the day before, and then the basal body temperature was measured in the rectums using a digital thermometer (Model D221-6, Takara Kogyo) 3 times at intervals of 1 hour. After the third measurement of the body temperature, the compounds shown in Table 6 were orally administered in a volume of 1 ml per 100 g of body weight. LPS (Escherichia coli 0111 B4, Difco) was administered from their tail veins in an amount of 0.2 ml per 100 g of body weight 1 hour after the administration of the compounds.
The body temperature was measured from 3 to 5 hours after that at intervals of 1 hour. The antipyretic activity of the compounds was evaluated by the difference in body temperature between a control group and a compound-administered group. Statistical analysis was carried out by the Dunnett's test.

These results are taken from patent US5082838A, “Sulfur-containing fused pyrimidine derivatives, their production and use” (Takeda Chemical Industries, Ltd., priority 1989, dated 1992).

In the case of `CCCn1c(=O)c(-c2ccccc2)c2n(c1=O)CC[S+]2[O-]` (stereo not shown) [Example 48], in assay [1], the inhibition at 10 µM was found to be 86.6% and the inhibition at 1 µM worked out at 24.6%.
Consider `O=c1c(-c2ccccc2)c2n(c(=O)n1Cc1ccccc1)CC=CS2` [Example 129, 7-Benzyl-9-phenyl-4H,6H-pyrimido[6,1-b][1,3]thiazine-6,8(7H)-dione], for which, in assay [2], the activity at 30 µM was determined as 117 ± 6% and the activity at 3 µM stood at 197 ± 9%.
In assay [3], `CCCCn1c(=O)c(-c2ccccc2)c2n(c1=O)CCC[S+]2[O-]` (stereo not shown) [Example 45] came in with an inhibition at 10 µM of 75% and an inhibition at 1 µM of 30%. Besides, in assay [1], the inhibition at 10 µM was 100% and the inhibition at 1 µM is 6.2%.
As to `CCCn1c(=O)c(-c2ccccc2)c2n(c1=O)CCCS2(=O)=O` [Example 58, 1,1-Dioxo-9-phenyl-7-propyl-3,4-dihydro-2H,6H-pyrimido [6,1-b][1,3]thiazine-6,8(7H)-dione], in assay [2], the activity at 30 µM amounted to 140 ± 2% and the activity at 3 µM worked out at 164 ± 25%.
In turn, `CCCCn1c(=O)c(-c2ccccc2)c2n(c1=O)CCS2(=O)=O` [Example 62] registered an inhibition at 10 µM in assay [3] of 96%.
Compound `Cn1c(=O)c(-c2ccccc2)c2n(c1=O)CCCS2(=O)=O` [Example 64] gave an inhibition at 10 µM in assay [3] of 100%. 1 µM produced 60% inhibition in assay [3]. The “Antipyretic Activity (difference in body temperature vs. control group)” value is -0.68 °C in assay [4] (25 mg/kg), -0.82 °C in assay [4] (50 mg/kg) and -1.13 °C in assay [4] (100 mg/kg).
In assay [3], `O=c1c(-c2ccccc2)c2n(c(=O)n1-c1ccccc1)CCCS2(=O)=O` [Example 67] showed an inhibition at 10 µM of 98% and an inhibition at 1 µM of 10%.
Consider `CCCn1c(=O)c(-c2ccccc2)c2n(c1=O)CCS2(=O)=O` [Example 61], for which, in assay [2], the activity at 30 µM turned out to be 109 ± 12% and the activity at 3 µM turned out to be 177 ± 8%.
For `CCCn1c(=O)c(-c2ccccc2)c2n(c1=O)CCCS2` [Example 1, 9-Phenyl-7-propyl-3,4-dihydro-2H,6H-pyrimido[6,1-b][1,3] thiazine-6,8(7H)-dione], in assay [2], the activity at 30 µM turned out to be 117 ± 34% and the activity at 3 µM is 168 ± 6%.
In assay [3], `CCn1c(=O)c(-c2ccccc2)c2n(c1=O)CCCS2(=O)=O` [Example 65] registered an inhibition at 10 µM of 100% and an inhibition at 1 µM of 40%. Moreover, the “Antipyretic Activity (difference in body temperature vs. control group)” value in assay [4] (100 mg/kg) is -0.95 °C.
As for `CCCCCn1c(=O)c(-c2ccccc2)c2n(c1=O)CCC[S+]2[O-]` (stereo not shown) [Example 50], in assay [3], the inhibition at 10 µM amounted to 98% and the inhibition at 1 µM stood at 58%.
As to `O=c1c(-c2ccccc2)c2n(c(=O)n1Cc1ccccc1)CCCS2` [Example 36, 7-benzyl-9-phenyl-3,4-dihydro-2H,6H-pyrimido[6,1-b][1,3]thiazine-6,8(7H)-dione], in assay [2], the activity at 30 µM was 102 ± 2% and the activity at 3 µM amounted to 240 ± 16%.
As for `CCCC/C=C/c1c2n(c(=O)n(CCC)c1=O)CCS2` [Example 106], the “Antipyretic Activity (difference in body temperature vs. control group)” value in assay [4] (100 mg/kg) was -0.53 °C.
Consider `CCn1c(=O)c(-c2ccccc2)c2n(c1=O)CCC[S+]2[O-]` (stereo not shown) [Example 43], for which the inhibition at 10 µM in assay [3] was 52%. Besides, the “Antipyretic Activity (difference in body temperature vs. control group)” value in assay [4] (100 mg/kg) was -0.70 °C.
With `O=c1c(-c2ccccc2)c2n(c(=O)n1-c1ccccc1)CCS2(=O)=O` [Example 63], the inhibition at 10 µM in assay [3] turned out to be 98%.
The same measure, in the same setting: the value for `Cn1c(=O)c(-c2ccccc2)c2n(c1=O)CCS2(=O)=O` [Example 59] was 89%.
Regarding “9-Formyl-7-propyl-3,4-dihydro-2H,6H-pyrimido[6,1-b][1,3]thiazine-6,8(7H)-dione [Example 101]”, in assay [4] (100 mg/kg), the “Antipyretic Activity (difference in body temperature vs. control group)” value is -0.87 °C.
Still for that read-out and setting: the value for `CCCCn1c(=O)c(-c2ccccc2)c2n(c1=O)CCCS2` [Example 23] was -0.72 °C.
Consider `CCn1c(=O)c(-c2ccccc2)c2n(c1=O)CCCS2` [Example 17], for which the inhibition at 10 µM in assay [3] amounted to 93%.

As a reminder, the inhibition is the relative decrease from the control value, in per cent.
